Data on 2 compounds can be found in patent US20240319202A1, “METHOD FOR EVALUATING AGGREGATION STATE OF AGGREGATIVE PROTEIN” (HAMAMATSU PHOTONICS K.K., priority 2023, published 2024).

SMILES strings stand for the structures.

Assay [1] deals with T1, horseradish peroxidase (HRP) (Armoracia rusticana, UniProt P00433).
T1 construct: purchased FUJIFILM Wako Pure Chemical Corporation
T1 sequence (P00433 31-338): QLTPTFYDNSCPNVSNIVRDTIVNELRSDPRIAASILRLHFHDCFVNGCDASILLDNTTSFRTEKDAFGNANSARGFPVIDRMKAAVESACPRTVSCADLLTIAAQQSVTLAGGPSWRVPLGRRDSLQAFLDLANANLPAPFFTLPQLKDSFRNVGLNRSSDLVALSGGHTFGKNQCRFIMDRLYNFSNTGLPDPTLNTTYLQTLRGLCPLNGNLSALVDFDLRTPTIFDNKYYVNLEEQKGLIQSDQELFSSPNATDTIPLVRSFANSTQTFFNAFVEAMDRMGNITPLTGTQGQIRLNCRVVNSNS
Nature of the assay: Evaluation of aggregation state of heat-denatured horseradish peroxidase using light-absorption/fluorescence characteristics of rose bengal as index. The settings on record: HRP 5 μM, dye 1 μM, heat-stirred at 70° C., PBS pH 7.4. The method, then:
40 mg of horseradish peroxidase (HRP, manufactured by FUJIFILM Wako Pure Chemical Corporation) was added to 2 mL of phosphate buffered saline at pH 7.4, and dissolved by being left to stand. The obtained HRP solution was heat-stirred at 200 rpm at 70° C. to cause heat denaturation of the HRP, thereby starting the aggregation reaction of the HRP. At 0, 5, 10, 15, 20, 25, 30, 35, 40, 50, 60, 70, 80, and 90 minutes after starting heat-stirring, each of 100 μL of the HRP solution was extracted and ice-cooled. The ice-cooled HRP solution, and rose bengal (manufactured by FUJIFILM Wako Pure Chemical Corporation) were added to distilled water such that final concentrations were each 5 μM and 1 μM. The obtained solution was put in a spectroscopic measurement cell to measure the light-absorption/fluorescence characteristics. The excitation wavelength in fluorescence measurement was 530 nm.

Assay [2] has as its target T2, lysozyme (Gallus gallus, UniProt P00698).
T2 construct: purchased FUJIFILM Wako Pure Chemical Corporation
Nature of the assay: Evaluation of aggregation state of heat-denatured lysozyme using light-absorption/fluorescence characteristics of a xanthene dye as index. The settings on record: lysozyme 7 μM, dye 1 μM, heat-stirred at 60° C. The method, then:
40 mg of lysozyme (manufactured by FUJIFILM Wako Pure Chemical Corporation) was added to 2 mL of an aqueous solution of 25 mM of hydrochloric acid and 100 mM of sodium chloride, and dissolved by being left to stand. The obtained lysozyme solution was heat-stirred at 200 rpm at 60° C. to cause heat denaturation of the lysozyme, thereby starting the aggregation reaction of the lysozyme. At 0, 10, 20, 25, 30, 35, 40, 45, 50, 60, 70, 80, and 90 minutes after starting heat-stirring, each of 100 μL of the lysozyme solution was extracted and ice-cooled. The ice-cooled lysozyme solution, and rose bengal (manufactured by FUJIFILM Wako Pure Chemical Corporation) were added to distilled water such that final concentrations were each 7 μM and 1 μM. The obtained solution was put in a spectroscopic measurement cell to measure the light-absorption/fluorescence characteristics. The excitation wavelength in fluorescence measurement was 530 nm.
Sample preparation and light absorption and fluorescence measurement were performed in the same manner as in Example 1 except that eosin Y (manufactured by FUJIFILM Wako Pure Chemical Corporation) was used instead of rose bengal as the xanthene dye, and that the excitation wavelength in fluorescence measurement was set to 500 nm. […]

T2 sequence (P00698 19-147): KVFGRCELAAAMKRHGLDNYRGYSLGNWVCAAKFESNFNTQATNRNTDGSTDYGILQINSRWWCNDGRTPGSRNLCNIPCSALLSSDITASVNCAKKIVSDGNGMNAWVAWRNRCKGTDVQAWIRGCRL

In the case of `O=C(O)c1c(Cl)c(Cl)c(Cl)c(Cl)c1-c1c2cc(I)c(=O)c(I)c-2oc2c(I)c(O)c(I)cc12` [rose bengal], the “heat denaturation time at the minimum point of maximum absorbance (decreasing, thereafter increasing)” value in assay [1] (HRP absorption subtracted) was “around 20 minutes”. The “heat denaturation time at the minimum point of fluorescence intensity at around 570 nm and maximum fluorescence intensity (decreasing, thereafter increasing)” value in assay [1] (excitation 530 nm) is reported as “around 20 minutes”.

As to `O.O=C([O-])c1ccccc1-c1c2cc(I)c(=O)c(I)c-2oc2c(I)c([O-])c(I)cc12.[Na+].[Na+]` [erythrosin B], the “shape of the absorption spectra, maximum absorption wavelength and maximum absorbance versus heat denaturation time” value in assay [2] was “changed depending on a heat denaturation time”.
